Each structure is given as a SMILES string. A value given as a limit tells only on which side of the number the result lay.

Test [1] has as its target T1, human 5-HT1A (Homo sapiens, UniProt P08908).
T1 construct: expressed in transfected cells; host or cells: HEK293
T1 sequence (P08908 1-422): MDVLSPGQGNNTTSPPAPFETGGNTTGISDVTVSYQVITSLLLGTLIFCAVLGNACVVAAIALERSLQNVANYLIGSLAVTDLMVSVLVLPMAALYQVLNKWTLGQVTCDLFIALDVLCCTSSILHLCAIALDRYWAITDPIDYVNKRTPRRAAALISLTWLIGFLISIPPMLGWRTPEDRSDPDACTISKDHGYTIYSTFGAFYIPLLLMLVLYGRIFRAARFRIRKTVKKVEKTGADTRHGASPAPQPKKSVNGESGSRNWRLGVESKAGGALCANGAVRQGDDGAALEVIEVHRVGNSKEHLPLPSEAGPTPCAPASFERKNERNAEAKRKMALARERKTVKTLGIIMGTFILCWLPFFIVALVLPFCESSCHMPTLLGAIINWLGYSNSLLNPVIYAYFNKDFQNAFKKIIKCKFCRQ
Put plainly: Radioligand displacement assay at 5-HT1A ([3H]-8-OH-DPAT, HEK293 cells). The test is classed as binding. The note with it: HEK293 cells stably expressing h5-HT1A, read-out: Ki (n), 5-HT1A. On the procedure: (§1) HEK293 cells with a stable expression of human 5-HT1A, 5-HT6, 5-HT7b, and D2L (prepared with the use of Lipofectamine 2000), or CHO-K1 cells with plasmids containing the sequence coding for the human serotonin 5-HT2A receptor (PerkinElmer), were maintained at 37 °C in a humidified atmosphere with 5% CO2 and grown in Dulbecco’s Modified Eagle Medium containing 10% dialyzed fetal bovine serum and 500 µg/mL G418 sulfate. For membrane preparation, cells were subcultured in 150 cm^2 flasks, grown to 90% confluence, washed twice with prewarmed to 37 °C phosphate buffered saline (PBS) and pelleted by centrifugation (200× g) in PBS containing 0.1 mM EDTA and 1 mM dithiothreitol. Prior to membrane preparation, the pellets were stored at −80 °C.
(§2) Cell pellets were thawed and homogenized in 10 volumes of assay buffer using an Ultra Turrax tissue homogenizer, and were then centrifuged twice at 35,000× g for 15 min at 4 °C, with incubations for 15 min at 37 °C in between. […] The process of equilibration was terminated by rapid filtration through Unifilter plates with a 96-well cell harvester and the radioactivity retained on the filters was quantified on a Microbeta plate reader (PerkinElmer, Waltham, MA, USA). […] The inhibition constants (Ki) were calculated from the Cheng-Prusoff equation [38]. Results are expressed as means of two separate experiments.
For orientation: Loss of bound radioactivity is the signal in a displacement assay; it reports binding, not function.

Test [2] addresses T2, human 5-HT6 (Homo sapiens, UniProt P50406).
T2 construct: expressed in transfected cells; host or cells: HEK293
Nature of the test: Radioligand displacement assay at 5-HT6 ([3H]-LSD, HEK293 cells). The settings on record: HEK293 cells stably expressing h5-HT6, read-out: Ki ± SD (n), 5-HT6. The test is classed as binding. On the procedure: as §1, §2

T2 sequence (P50406 whole entry): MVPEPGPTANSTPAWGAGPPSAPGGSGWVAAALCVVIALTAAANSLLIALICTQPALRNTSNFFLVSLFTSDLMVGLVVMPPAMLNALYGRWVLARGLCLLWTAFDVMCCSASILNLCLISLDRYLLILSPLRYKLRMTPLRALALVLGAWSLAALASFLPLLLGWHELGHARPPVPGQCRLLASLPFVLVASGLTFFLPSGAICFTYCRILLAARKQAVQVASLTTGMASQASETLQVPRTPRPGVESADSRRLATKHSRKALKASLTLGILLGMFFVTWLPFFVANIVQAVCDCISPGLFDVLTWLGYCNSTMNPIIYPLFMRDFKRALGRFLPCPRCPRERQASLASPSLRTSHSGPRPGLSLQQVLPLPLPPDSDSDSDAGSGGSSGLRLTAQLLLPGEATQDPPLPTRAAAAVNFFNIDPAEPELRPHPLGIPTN

In the case of `CC(C)COc1ccc(CNC(=O)N(Cc2ccc(F)cc2)C2CCN(C)CC2)cc1` [Pimavanserin, reference compound], the Ki (as a rule, a measure of affinity in units of concentration, obtained from inhibition or displacement) is greater than 10 µM in test [1] and 0.059 ± 0.011 µM in test [2].
With `CN1CCC(N(Cc2ccc(F)cc2)C(=O)NCc2ccc(OCCCN3CCCCC3)cc2)CC1` [ST-2300, 1-(4-Fluorobenzyl)-1-(1-methylpiperidin-4-yl)-3-{4-[3-(piperidin-1-yl)propoxy]benzyl}urea], the Ki in test [1] and in test [2] was greater than 10 µM each time.

These data come from article PMC9138994 (Biomolecules, 2022).
